Experimental data published in US20230406849A1, “KRAS INHIBITORS FOR TREATMENT OF CANCERS” (TYLIGAND BIOSCIENCE (SHANGHAI) LIMITED, priority 2020, published 2023).
Read-outs that look alike come from different tables or passages of the source. One block for each molecule: values may come before it.

Columns and labels:
[1] = tested on: human non-small cell lung cancer cells NCI-H358 with KRas G12C mutation; test: NCI-H358 cell proliferation, CellTiter-Glo Luminescent Cell Viability Assay; assay type: cell-based; conditions: for inhibition at 1 µM: 1 μM compound, read-out: Inhibition rate % (1 μM)
Excerpt: This assay verified the inhibitory activity of the compounds of the present disclosure on the proliferation of human non-small cell lung cancer cells NCI-H358 with KRas G12C mutation by using Promega's CellTiter-Glo® Luminescent Cell Viability Assay kit.
[Test materials]: NCI-H358 cell line (Cell Resource Center, IBMS, CAMS/PUMC, Item number: 3111C0001CCC000470), 96-well transparent flat-bottomed black-walled cell culture plate (Greiner Bio one, Cat #655096), RPMI-1640 Medium (GE, Cat #SH30809.01), Fetal Bovine Serum FBS (Thermo Fisher, Cat #10099-141), CellTiter-Glo® Luminescent Cell Viability Assay Kit (Promega, Cat #G7573), PBS (Solarbio, Cat #P1020), Trypsin (Thermo Fisher, Cat #25200072), DMSO (Sigma, Cat #D2650), Methyl cellulose (SIGMA, Cat #9004-67-5).
[Experimental procedure]: 180 μL of cell suspension (RPMI1640 solution with 10% FBS and 1% methyl cellulose) was charged to a 96-well cell culture plate at a density of 1500 cells/well. A control group containing no cells, no compounds and only 3D complete medium (RPMI 1640 solution with 1! Methyl cellulose and 10% FBS) (i.e. culture medium control) and a control group containing no compounds but cells (i.e. cell control) were set. AMG510 or the following reference compounds were used as positive controls. The cell plate was placed in a cell incubator overnight. A 10-fold drug solution (RPMI1640 solution with 10% FBS and 1% DMSO) was prepared at a concentration of 10 μM, and 20 μL of this solution was added to each well of the 96-well plate seeded with cells, so that the final concentration of the compounds in each well was 1 μM, and the DMSO concentration […] replicate wells were set up for each compound. The solutions of AMG510 or the following reference compounds were prepared in the same way and added to the positive control wells. The cell plate was placed in a cell incubator and cultured for 120 h. For endpoint detection, the CellTiter-Glo reagent was melted, and the cell plate was moved to room temperature to equilibrate for 30 minutes, added with 100 µL of CellTiter-Glo to each well, and shaken on an orbital shaker for 5 minutes to fully lyse the cells. The plate was kept at room temperature for 20 minutes to stabilize the luminescence signal, and the luminescence value of each well was full wavelength scanned with a multi-functional microplate reader (Molecular Devices, Spectramax M3 microplate reader).
[Test samples] The compounds of Examples 1-39, and reference compound A
[Data Analysis] The following formula was used to calculate the cell inhibition rate under the action of each concentration of the compounds:
Inhibition rate %=[1−(LumDrug to be tested−LumCulture medium control)/(LumCell control−LUMCulture medium control)]×100%
IC50 values were calculated using GraphPad Prism 7.0 software, nonlinear Sigmoidal regression was used to fit the data to obtain a dose-response curve.

[2] = Cassette pharmacokinetic experiment in rats (IV); assay type: in vivo; conditions: rat, plasma, 1 mg/kg, male SD rats, tail vein IV, 1 mg/mL each compound at 1 mL/kg
Excerpt: 2.1 Pharmacokinetic Properties of Some Compounds of the Present Disclosure Evaluated by Cassette Pharmacokinetic Experiments in Rats.
[Test materials]: Male SD rats, age: 6-8 weeks, body weight 220-250 g, purchased from Zhaoyan (Suzhou) New Drug Research Center Co., Ltd.; Tolbutamide (Aladdin, Cat #H1401054); Sulfobutyl-(Captisol, Shandong Binzhou Zhiyuan Biological Technology Co., Ltd, Cat #20191013); Propylene glycol (15)-stearate (Solutol, Meilun Bio, Cat #50206A); DMSO (Vetec Company, Cat #WXBD0293V); acetonitrile (Sigma-Aldrich, Cat #WXBD1744V); Methanol (Sigma-Aldrich, Cat #WXBD2831V).
[Experimental procedure]: The compound combination was prepared in a solvent of 5% DMSO/10% Solutol/85% (20% Captisol), and the final concentration of each compound was 1 mg/mL. The SD rats were treated with the compound preparation in 1 mL/kg by tail vein IV injection, and blood samples were collected at the time points of 5 min, 15 min, 30 min, 1 h, 2 h, 4 h, 8 h, and 24 h via external jugular vein puncture, centrifuged at low temperature for 20 minutes to collect plasma samples, which were stored at −80° C. until analysis.
[Sample analysis]: Establishing LC-MS/MS compound analysis method
Standard curve preparation: 20 μL of lmg/mL DMSO stock solution for each compound was aspirated and transferred to […] of 50% methanol working solution, and the resulting solution was serially diluted to obtain a standard curve working solution with concentrations of 20000, 10000, 5000, 1000, 500, 100, 50, 20 and […]. Then 5 µL of this standard curve working solution was mixed with 45 μL rat blank plasma to give a standard curve with concentrations of 2000, 1000, 500, 100, 50, 10, 2 and 1 ng/mL for quantification of unknown samples.
Sample pretreatment: 50 μL of unknown plasma sample or standard curve sample was mixed with 250 μL of acetonitrile containing internal standard as a precipitant. The plasma protein was precipitated, extracted for test compounds, and centrifuged at low temperature for 20 minutes. The supernatant was taken, mixed with 0.1% formic acid aqueous solution, and 5 μL of the resulting solution was aspirated for blood concentration analysis.
[Data processing]: A standard curve was plotted using mass spectrometry software, to quantify unknown samples, and pharmacokinetic parameters are calculated by Winnonlin 8.2 using the drug concentration of unknown samples at each time point.

SMILES: C=CC(=O)N1CCN(c2c(C#N)cnc3c(OC)c(-c4ccc(F)c5sc(N)nc45)c(Cl)cc23)CC1 [Example 39, 4-(4-Acryloylpiperazin-1-yl)-7-(2-amino-7-fluorobenzo[d]thiazol-4-yl)-6-chloro-8-methoxy quinoline-3-carbonitrile]
IC50 ([1]; read-out: IC50 value): < 20 nM

SMILES: C=CC(=O)N1CCN(c2c(C#N)c(N)nc3c(F)c(-c4cccc5sc(N)nc45)c(Cl)cc23)CC1 [Example 33, 4-(4-Acryloylpiperazin-1-yl)-2-amino-7-(2-aminobenzo[d]thiazol-4-yl)-6-chloro-8-fluoroquinoline-3-carbonitrile]
IC50 ([1]; read-out: IC50 value): < 50 nM

SMILES: C=CC(=O)N1CCN(c2c(C#N)cnc3c(F)c(-c4c(C)ccc5[nH]ncc45)c(Cl)cc23)CC1 [Ref. Comp. B, reference compound]
IC50 ([1]; 120 h, read-out: IC50): 350 nM

SMILES: C=C(F)C(=O)N1CCN(c2c(C#N)cnc3c(F)c(-c4ccc(F)c5sc(N)nc45)c(Cl)cc23)CC1 [Example 16, 7-(2-Amino-7-fluorobenzo[d]thiazol-4-yl)-6-chloro-8-fluoro-4-(4-(2-fluoroaryloxy)piperazin-1-yl)quinoline-3-carbonitrile]
AUC(0-t) [2]: 2790 ng·h/mL | clearance [2]: 5.93 mL/min/kg | half-life [2]: 3.5 h

SMILES: C=CC(=O)N1CCN(c2c(C#N)c(-c3ccnn3CCN(C)C)nc3c(F)c(-c4ccc(F)c5sc(N)nc45)c(Cl)cc23)C[C@H]1C [Example 7, 4-((R)-4-acryloyl-3-methylpiperazin-1-yl)-7-(2-amino-7-fluorobenzo[d]thiazol-4-yl)-6-chloro-2-(1-(2-(dimethylamino)ethyl)-1H-pyrazol-5-yl)-8-fluoroquinoline-3-carbonitrile]
inhibition at 1 µM ([1]; 120 h): 90% | IC50 ([1]; 120 h, read-out: IC50): 260 nM

SMILES: C=CC(=O)N1CCN(c2c(C#N)c(N)nc3c(F)c(-c4c(F)ccc5sc(N)nc45)c(Cl)cc23)CC1 [Example 34, 4-(4-Acryloylpiperazin-1-yl)-2-amino-7-(2-amino-5-fluorobenzo[d]thiazol-4-yl)-6-chloro-8-fluoroquinoline-3-carbonitrile]
IC50 ([1]; read-out: IC50 value): < 50 nM

SMILES: C=CC(=O)N1CCN(c2c(C#N)c(C)nc3c(F)c(-c4ccc(F)c5sc(N)nc45)c(Cl)cc23)C[C@@H]1CC#N [Example 32]
IC50 ([1]; read-out: IC50 value): < 50 nM

Second part, led by results:

IC50 ([1]; read-out: IC50 value): < 50 nM
SMILES: C=CC(=O)N1CCN(c2c(C#N)c(C)nc3c(F)c(-c4ccc(F)c5sc(N)nc45)c(Cl)cc23)CC1 [Example 17, 4-(4-Acryloylpiperazin-1-yl)-7-(2-amino-7-fluorobenzo[d]thiazol-4-yl)-6-chloro-8-fluoro-2-methylquinoline-3-carbonitrile]

AUC(0-t) [2]: 1100 ng·h/mL | clearance [2]: 15.1 mL/min/kg | half-life [2]: 1.58 h
SMILES: C=CC(=O)N1CCN(c2c(C#N)c(-c3ccnn3C)nc3c(F)c(-c4ccc(F)c5sc(N)nc45)c(Cl)cc23)CC1 [Example 14, 4-(4-Acryloylpiperazin-1-yl)-7-(2-amino-7-fluorobenzo[d]thiazol-4-yl)-6-chloro-8-fluoro-2-(1-methyl-1H-pyrazol-5-yl)quinoline-3-carbonitrile]

IC50 ([1]; 120 h, read-out: IC50): 9 nM | IC50 ([1]; read-out: IC50 value): < 20 nM
SMILES: C=CC(=O)N1CCN(c2c(C#N)c(-c3cccc(CN(C)C)c3)nc3c(F)c(-c4ccc(F)c5sc(N)nc45)c(Cl)cc23)CC1 [Example 3, 4-(4-Acryloylpiperazin-1-yl)-7-(2-amino-7-fluorobenzo[d]thiazol-4-yl)-6-chloro-2-(3-((dimethylamino)methyl)phenyl)-8-fluoroquinoline-3-carbonitrile]
inhibition at 1 µM ([1]; 120 h): 97.7%

IC50 ([1]; 120 h, read-out: IC50): 17 nM | IC50 ([1]; read-out: IC50 value): < 20 nM
SMILES: C=CC(=O)N1CCN(c2c(C#N)c(-c3cccc(CN(C)C)c3)nc3c(F)c(-c4ccc(F)c5sc(N)nc45)c(Cl)cc23)C[C@H]1C [Example 6, 4-((R)-4-acryloyl-3-methylpiperazin-1-yl)-7-(2-amino-7-fluorobenzo[d]thiazol-4-yl)-6-chloro-2-(3-((dimethylamino)methyl)phenyl)-8-fluoroquinoline-3-carbonitrile]
inhibition at 1 µM ([1]; 120 h): 95%

AUC(0-t) [2]: 1950 ng·h/mL | clearance [2]: 8.58 mL/min/kg | half-life [2]: 1.37 h
SMILES: C=CC(=O)N1CCN(c2c(C#N)c(OC)nc3c(F)c(-c4ccc(F)c5sc(N)nc45)c(Cl)cc23)CC1 [Example 13, 4-(4-Acryloylpiperazin-1-yl)-7-(2-amino-7-fluorobenzo[d]thiazol-4-yl)-6-chloro-8-fluoro-2-methoxyquinoline-3-carbonitrile]

IC50 ([1]; read-out: IC50 value): < 50 nM
SMILES: C=CC(=O)N1CCN(c2c(C#N)c(NC(C)=O)nc3c(F)c(-c4ccc(F)c5sc(N)nc45)c(Cl)cc23)CC1 [Example 37, N-(4-(4-acryloylpiperazin-1-yl)-7-(2-amino-7-fluorobenzo[d]thiazol-4-yl)-6-chloro-3-cyano-8-fluoroquinolin-2-yl)acetamide]

IC50 ([1]; read-out: IC50 value): < 50 nM
SMILES: C=CC(=O)N1CCN(c2c(C#N)c(N)nc3c(F)c(-c4ccc(F)c5sc(N)nc45)c(Cl)cc23)CC1 [Example 20, 4-(4-Acryloylpiperazin-1-yl)-2-amino-7-(2-amino-7-fluorobenzo[d]thiazol-4-yl)-6-chloro-8-fluoroquinoline-3-carbonitrile]

IC50 ([1]; 120 h, read-out: IC50): 53 nM
SMILES: C=CC(=O)N1CCN(c2c(C#N)c(-c3ccnn3CCN(C)C)nc3c(F)c(-c4ccc(F)c5sc(N)nc45)c(Cl)cc23)CC1 [Example 4, 4-(4-Acryloylpiperazin-1-yl)-7-(2-amino-7-fluorobenzo[d]thiazol-4-yl)-6-chloro-2-(1-(2-(dimethylamino)ethyl)-1H-pyrazol-5-yl)-8-fluoroquinoline-3-carbonitrile]
inhibition at 1 µM ([1]; 120 h): 94.8%

IC50 ([1]; 120 h, read-out: IC50): 7 nM | IC50 ([1]; read-out: IC50 value): < 20 nM
SMILES: C=CC(=O)N1CCN(c2c(C#N)c(-c3cccc(C(C)N(C)C)c3)nc3c(F)c(-c4ccc(F)c5sc(N)nc45)c(Cl)cc23)CC1 (stereo not drawn) [Example 5, 4-(4-Acryloylpiperazin-1-yl)-7-(2-amino-7-fluorobenzo[d]thiazol-4-yl)-6-chloro-2-(3-(1-(dimethylamino)ethyl)phenyl)-8-fluoroquinoline-3-carbonitrile]
inhibition at 1 µM ([1]; 120 h): 94.9%

AUC(0-t) [2]: 717 ng·h/mL | clearance [2]: 23.3 mL/min/kg | half-life [2]: 1.03 h
SMILES: C=CC(=O)N1CCN(c2c(C#N)c(-c3cn(C)nc3C)nc3c(F)c(-c4ccc(F)c5sc(N)nc45)c(Cl)cc23)CC1 [Example 15, 4-(4-Acryloylpiperazin-1-yl)-7-(2-amino-7-fluorobenzo[d]thiazol-4-yl)-6-chloro-2-(1,3-dimethyl-1H-pyrazol-4-yl)-8-fluoroquinoline-3-carbonitrile]
